Among the data in patent US20230340011A1 (Asteroid Therapeutics, priority 2022, published 2023) are IC50 and EC50 values, retold here.

The target in one test is SREBP-2 (Homo sapiens (Human), UniProt Q12772). Nature of the test: In vitro assay SREBP-2: PathHunter U2OS SREBP-2 Nuclear Translocation Cell Line, U18666A-stimulated. The class given is cell-based. To be noted: PathHunter U2OS SREBP-2 nuclear translocation cells, U18666A 10 μM, overnight (16 hours).
The target in another test is LXRβ (Homo sapiens (Human), UniProt P55055). Nature of the test: In vitro assay LXRβ: PathHunter NHR CHO cells, LXRβ / Steroid Receptor Co-activator Peptide enzyme fragment complementation. The test is classed as cell-based. Conditions: PathHunter NHR CHO cells, full-length human LXRβ and SRCP, chemiluminescent signal; read-out: LXRβ PPI. Put shortly: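 Enzyme fragment complementation read-out: CHO cells stably expressing ProLink-tagged full-length human LXRβ plus nuclear enzyme acceptor–SRCP fusion, seeded and held overnight at 37° C. Medium with charcoal-dextran filtered serum; final vehicle 1%. Chemiluminescence measured after signal generation.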
LXRβ, sequence (P55055 whole entry, the tested form may be a part): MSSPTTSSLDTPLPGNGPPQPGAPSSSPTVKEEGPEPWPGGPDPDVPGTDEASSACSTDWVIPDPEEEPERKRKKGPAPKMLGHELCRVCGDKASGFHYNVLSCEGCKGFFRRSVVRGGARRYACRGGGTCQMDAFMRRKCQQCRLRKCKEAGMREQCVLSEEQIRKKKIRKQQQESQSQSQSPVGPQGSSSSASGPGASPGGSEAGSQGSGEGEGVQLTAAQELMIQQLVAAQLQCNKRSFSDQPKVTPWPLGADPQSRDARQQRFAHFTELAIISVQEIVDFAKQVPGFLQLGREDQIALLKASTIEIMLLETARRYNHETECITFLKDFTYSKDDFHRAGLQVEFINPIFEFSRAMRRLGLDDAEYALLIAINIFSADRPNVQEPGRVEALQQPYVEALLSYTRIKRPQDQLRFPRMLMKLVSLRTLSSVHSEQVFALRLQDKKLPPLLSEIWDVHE

The structures appear in SMILES notation.

In the case of `CCC1(O)CC2(CN(C(=O)CC[C@@H](C)[C@H]3CC[C@H]4[C@@H]5CC=C6C[C@@H](O)CC[C@]6(C)[C@H]5CC[C@]34C)C2)C1` [Example 102, (R)-1-(6-ethyl-6-hydroxy-2-azaspiro[3.3]heptan-2-yl)-4-((3S,8S,9S,10R,13R,14S,17R)-3-hydroxy-10,13-dimethy12,3,4,7,8,9,10,11,12,13,14,15,16,17-tetradecahydro-1H-cyclopenta[a]phenanthren-17-yl)pentan-1-one], at SREBP-2, the IC50 was under 0.25 µM. In addition, the EC50 on LXRβ is over 10 µM.
For `C[C@H](CCC(=O)N1CCC[C@H](O)C1)[C@H]1CC[C@H]2[C@@H]3CC=C4C[C@@H](O)CC[C@]4(C)[C@H]3CC[C@]12C` [Example 103, (R)-4-((3S,8S,9S,10R,13R,14S,17R)-3-hydroxy-10,13-dimethyl-2,3,4,7,8,9,10,11,12,13,14,15,16,17-tetradecahydro-1H-cyclopenta[a]phenanthren-17-yl)-1-((S)-3-hydroxypiperidin-1-yl)pentan-1-one], the IC50 against SREBP-2 was under 0.25 µM. For the same molecule, the EC50 on LXRβ fell in the range of 0.25 to 1 µM.
`C[C@H](CCC(=O)N1CCC[C@@H](O)C1)[C@H]1CC[C@H]2[C@@H]3CC=C4C[C@@H](O)CC[C@]4(C)[C@H]3CC[C@]12C` [Example 104, (R)-4-((3S,8S,9S,10R,13R,14S,17R)-3-hydroxy-10,13-dimethyl-2,3,4,7,8,9,10,11,12,13,14,15,16,17-tetradecahydro-1H-cyclopenta[a]phenanthren-17-yl)-1-((R)-3-hydroxypiperidin-1-yl) pentan-1-one]: the IC50 on SREBP-2 was under 0.25 µM. The EC50 at LXRβ lay in the range of 0.25 to 1 µM.
Taken in the same sequence, the figures for `C[C@H](CCC(=O)N1CCC[C@@](C)(O)C1)[C@H]1CC[C@H]2[C@@H]3CC=C4C[C@@H](O)CC[C@]4(C)[C@H]3CC[C@]12C` [Example 105, (R)-4-((3S,8S,9S,10R,13R,14S,17R)-3-hydroxy-10,13-dimethyl-2,3,4,7,8,9,10,11,12,13,14,15,16,17-tetradecahydro-1H-cyclopenta[a]phenanthren-17-yl)-1-((R)-3-hydroxy-3-methylpiperidin-1-yl) pentan-1-one] were under 0.25 µM and 1 to 10 µM.
Taken in the same sequence, the figures for `CC[C@@]1(O)CCCN(C(=O)CC[C@@H](C)[C@H]2CC[C@H]3[C@@H]4CC=C5C[C@@H](O)CC[C@]5(C)[C@H]4CC[C@]23C)C1` [Example 106, (4R)-1-(3-ethyl-3-hydroxypiperidin-1-yl)-4-((3S,8S,9S,10R,13R,14S,17R)-3-hydroxy-10,13-dimethyl-2,3,4,7,8,9,10,11,12,13,14,15,16,17-tetradecahydro-1H-cyclopenta[a]phenanthren-17-yl)pentan-1-one] were under 0.25 µM and 0.25 to 1 µM.
Taken in the same sequence, the figures for `C[C@H]1CCCN(C(=O)CC[C@@H](C)[C@H]2CC[C@H]3[C@@H]4CC=C5C[C@@H](O)CC[C@]5(C)[C@H]4CC[C@]23C)C1` [Example 110, (R)-4-((3S,8S,9S,10R,13R,14S,17R)-3-hydroxy-10,13-dimethyl-2,3,4,7,8,9,10,11,12,13,14,15,16,17-tetradecahydro-1H-cyclopenta[a]phenanthren-17-yl)-1-((S)-3-methylpiperidin-1-yl) pentan-1-one] were under 0.25 µM and 1 to 10 µM.
`C[C@@H]1CCCN(C(=O)CC[C@@H](C)[C@H]2CC[C@H]3[C@@H]4CC=C5C[C@@H](O)CC[C@]5(C)[C@H]4CC[C@]23C)C1` [Example 111, (R)-4-((3S,8S,9S,10R,13R,14S,17R)-3-hydroxy-10,13-dimethyl-2,3,4,7,8,9,10,11,12,13,14,15,16,17-tetradecahydro-1H-cyclopenta[a]phenanthren-17-yl)-1-((R)-3-methylpiperidin-1-yl) pentan-1-one]: the IC50 against SREBP-2 was under 0.25 µM. Also, on LXRβ, the EC50 lay within 0.25 to 1 µM.
`C[C@H](CCC(=O)N1CCC[C@@H]1C)[C@H]1CC[C@H]2[C@@H]3CC=C4C[C@@H](O)CC[C@]4(C)[C@H]3CC[C@]12C` [Example 112, (R)-4-((3S,8S,9S,10R,13R,14S,17R)-3-hydroxy-10,13-dimethyl-2,3,4,7,8,9,10,11,12,13,14,15,16,17-tetradecahydro-1H-cyclopenta[a]phenanthren-17-yl)-1-((S)-2-methylpyrrolidin-1-yl)pentan-1-one]: on SREBP-2, the IC50 was under 0.25 µM. For the same molecule, the EC50 at LXRβ lay in the range of 0.25 to 1 µM.
Consider `C[C@H](CCC(=O)N1CCC[C@H]1C)[C@H]1CC[C@H]2[C@@H]3CC=C4C[C@@H](O)CC[C@]4(C)[C@H]3CC[C@]12C` [Example 113, (R)-4-((3S,8S,9S,10R,13R,14S,17R)-3-hydroxy-10,13-dimethyl-2,3,4,7,8,9,10,11,12,13,14,15,16,17-tetradecahydro-1H-cyclopenta[a]phenanthren-17-yl)-1-((R)-2-methylpyrrolidin-1-yl)pentan-1-one], for which the IC50 against SREBP-2 was under 0.25 µM. The EC50 at LXRβ was 0.25 to 1 µM.
Molecule `C[C@H]1CCN(C(=O)CC[C@@H](C)[C@H]2CC[C@H]3[C@@H]4CC=C5C[C@@H](O)CC[C@]5(C)[C@H]4CC[C@]23C)C1` [Example 114, (R)-4-((3S,8S,9S,10R,13R,14S,17R)-3-hydroxy-10,13-dimethyl-2,3,4,7,8,9,10,11,12,13,14,15,16,17-tetradecahydro-1H-cyclopenta[a]phenanthren-17-yl)-1-((S)-3-methylpyrrolidin-1-yl)pentan-1-one] showed an IC50 at SREBP-2 of under 0.25 µM. In addition, at LXRβ, the EC50 is 0.25 to 1 µM.
`C[C@@H]1CCN(C(=O)CC[C@@H](C)[C@H]2CC[C@H]3[C@@H]4CC=C5C[C@@H](O)CC[C@]5(C)[C@H]4CC[C@]23C)C1` [Example 115, (R)-4-((3S,8S,9S,10R,13R,14S,17R)-3-hydroxy-10,13-dimethyl-2,3,4,7,8,9,10,11,12,13,14,15,16,17-tetradecahydro-1H-cyclopenta[a]phenanthren-17-yl)-1-((R)-3-methylpyrrolidin-1-yl)pentan-1-one]: the IC50 against SREBP-2 is under 0.25 µM. For the same molecule, the EC50 at LXRβ was in the range of 0.25 to 1 µM.
At SREBP-2, `C[C@H](CCC(=O)N(C)C)[C@H]1CC[C@H]2[C@@H]3CC=C4C[C@@](C)(O)CC[C@]4(C)[C@H]3CC[C@]12C` [Example 120, (R)-4-((3S,8S,9S,10R,13R,14S,17R)-3-hydroxy-3,10,13-trimethyl-2,3,4,7,8,9,10,11,12,13,14,15,16,17-tetradecahydro-1H-cyclopenta [a]phenanthren-17-yl) -N,N-dimethylpentanamide] yielded an IC50 of 1 to 10 µM. Further, the EC50 on LXRβ was over 10 µM.
In turn, `C[C@H](CCC(=O)N(C)C)[C@H]1CC[C@H]2[C@@H]3CC=C4C[C@](C)(O)CC[C@]4(C)[C@H]3CC[C@]12C` [Example 121, (R)-4-((3R,8S,9S,10R,13R,14S,17R)-3-hydroxy-3,10,13-trimethyl-2,3,4,7,8,9,10,11,12,13,14,15,16,17-tetradecahydro-1H-cyclopenta [a]phenanthren-17-yl) -N,N-dimethylpentanamide] had an IC50 against SREBP-2 of over 10 µM. Besides, the EC50 at LXRβ was in the range of 1 to 10 µM.
The molecule `C[C@H](CCc1ccccn1)[C@H]1CC[C@H]2[C@@H]3CC=C4C[C@@H](O)CC[C@]4(C)[C@H]3CC[C@]12C` [Example 124, (3S,8S,9S,10R,13R,14S,17R)-10,13-dimethyl-17-((R)-4-(pyridin-2-yl)butan-2-yl)-2,3,4,7,8,9,10,11,12,13,14,15,16,17-tetradecahydro-1H-cyclopenta[a]phenanthren-3-ol] registered an IC50 on SREBP-2 of under 0.25 µM. Further, the EC50 at LXRβ is 0.25 to 1 µM.
Taken in the same sequence, the figures for `C[C@H](CCC(=O)N(C)C)[C@H]1CC[C@H]2[C@@H]3CC=C4C[C@@H](F)CC[C@]4(C)[C@H]3CC[C@]12C` [Example 126, (R)-4-((3S,8S,9S,10R,13R,14S,17R)-3-fluoro-10,13-dimethyl-2,3,4,7,8,9,10,11,12,13,14,15,16,17-tetradecahydro-1H-cyclopenta[a]phenanthren-17-yl)-N,N-dimethylpentanamide] were over 10 µM and over 10 µM.
Taken in the same sequence, the figures for `C[C@H](CCC(=O)N(C)C)[C@H]1CC[C@H]2[C@@H]3CC=C4CC(F)(F)CC[C@]4(C)[C@H]3CC[C@]12C` [Example 127, (R)-4-((8S,9S,10R,13R,14S,17R)-3,3-difluoro-10,13-dimethyl-2,3,4,7,8,9,10,11,12,13,14,15,16,17-tetradecahydro-1H-cyclopenta[a]phenanthren-17-yl) -N,N-dimethylpentanamide] were over 10 µM and over 10 µM.
For `Cc1ccc(CC[C@@H](C)[C@H]2CC[C@H]3[C@@H]4CC=C5C[C@@H](O)CC[C@]5(C)[C@H]4CC[C@]23C)nc1` [Example 131, (3S,8S,9S,10R,13R,14S,17R)-10,13-dimethyl-17-((R)-4-(5-methylpyridin-2-yl)butan-2-yl)-2,3,4,7,8,9,10,11,12,13,14,15,16,17-tetradecahydro-1H-cyclopenta[a]phenanthren-3-ol], at SREBP-2, the IC50 lay in the range of 0.25 to 1 µM. The EC50 at LXRβ is over 10 µM.
Regarding `C[C@H](CCc1ncccn1)[C@H]1CC[C@H]2[C@@H]3CC=C4C[C@@H](O)CC[C@]4(C)[C@H]3CC[C@]12C` [Example 133, (1R,3aS,3bS,7S,9aR,9bS,11aR)-9a,11a-dimethyl-1-[(2R)-4-(pyrimidin-2-yl)butan-2-yl]-1H,2H,3H,3aH,3bH,4H,6H,7H,8H,9H,9aH,9bH,10H,11H,11aH-cyclopenta[a]phenanthren-7-ol], the IC50 against SREBP-2 lay in the range of 0.25 to 1 µM. Moreover, the EC50 on LXRβ is 0.25 to 1 µM.
Consider `C[C@H](CCc1cccnn1)[C@H]1CC[C@H]2[C@@H]3CC=C4C[C@@H](O)CC[C@]4(C)[C@H]3CC[C@]12C` [Example 134, (1R,3aS,3bS,7S,9aR,9bS,11aR)-9a,11a-dimethyl-1-[(2R)-4-(pyridazin-3-yl)butan-2-yl]-1H,2H,3H,3aH,3bH,4H,6H,7H,8H,9H,9aH,9bH,10H,11H,11aH-cyclopenta[a]phenanthren-7-ol], for which the IC50 against SREBP-2 is over 10 µM. Besides, the EC50 at LXRβ lay within 0.25 to 1 µM.
